Results from ChEMBL document CHEMBL3875156, “Design, synthesis and preliminary evaluation of dopamine-amino acid conjugates as potential D1 dopaminergic modulators” (Eur J Med Chem, 2016).

Key:
[1] = n-octanol-phosphate buffer apparent distribution coefficient, log D of the compound at pH 7.4 by shake flask method; type: physicochemical
[2] = Half life in Sprague-Dawley rat brain homogenate at 2.075 mg/mL; type: ADME, tissue-based
[3] = Half life in human plasma at 2.05 mg/mL; type: ADME, cell-free

logD [1]	half-life [2] [h]	half-life [3] [h]	SMILES
0.5	1.33	2	N[C@@H](Cc1c[nH]c2ccccc12)C(=O)NCCc1ccc(O)c(O)c1
0.18	3.22	0.767	CC(C)C[C@H](N)C(=O)NCCc1ccc(O)c(O)c1
